Laboratory results reported in patent US20050176655A1, “Novel macrolide derivatives havaing effect of potentiating antifungal activity” (priority 2002, published 2005).

Experiments:
Assay in all cases: Paper disk method, enhancing action for activities of azole antifungal agents
Type in all cases: cell-based
[1] = system: Candida albicans ATCC 64548; conditions: 24 hours; for Inhibition activity (inhibition ring mm) C. albicans ATCC 64548 GYM / Transparency of the inhibition ring C. albicans ATCC 64548 GYM: miconazole 0.03 μg/ml
Procedure, shortened: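 GY agar (pH 6.0) seeded with C. albicans ATCC 64548 precultured in Waksman broth at 27° C for 40 hours, supplemented with sub-growth-inhibitory miconazole 0.03 μg/ml or fluconazole 0.5 μg/ml. Paper disk method; inhibition-zone diameter (mm) read after 24 hours, transparency graded A–E.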

[2] = system: Aspergillus niger ATCC 6275; conditions: 48 hours; for Inhibition activity (inhibition ring mm) A. niger ATCC 6275 GYF / Transparency of the inhibition ring A. niger ATCC 6275 GYF: fluconazole 10 μg/ml
Procedure, shortened: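 Paper-disk assay on A. niger ATCC 6275 spores (0.2%) seeded on GY agar pH 6.0. After 48 h, inhibition-zone diameter recorded in mm and transparency graded A (transparent) to E (opaque).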

[3] = system: fluconazole resistant Candida albicans ATCC 64550; conditions: 50 μg/8 mm disk, 24 hours
Procedure, shortened: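 Paper disk assay on GY agar (pH 6.0) seeded with Waksman-broth-grown C. albicans ATCC 64550 (0.1% inoculum). Medium was supplemented with sub-growth-inhibitory miconazole 0.15 μg/ml or fluconazole 30 μg/ml. After 24 h, inhibition-zone diameter was measured in mm and transparency graded A–E (A most transparent, E opaque).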

[4] = 50 μg/8 mm disk, GYF, fluconazole 0.5 μg/ml
[5] = 50 μg/8 mm disk, GY medium (control, no azole)
[6] = 50 μg/8 mm disk, GYM, miconazole 0.1 μg/ml

CCC(OC(=O)c1ccccc1)C(C)(O)C1OC(=O)C(C)C(OC2CC(C)(OC)C(O)C(C)O2)C(C)C(OC2OC(C)CC(N(C)C)C2O)C2(C)CC(C)=C(O2)C1C (stereo not drawn) [Compound 779, 13-O -benzoyl-8,9-Anhydro-pseudoerythro-mycin A 6,9-hemiketal]
Inhibition activity (inhibition ring mm) C. albicans ATCC 64548 GYM ([1]; 10 μg/8 mm disk): 10 mm
Transparency of the inhibition ring C. albicans ATCC 64548 GYM ([1]; 10 μg/8 mm disk): E (Growth of test organism was inhibited 35% or less.)
Inhibition activity (inhibition ring mm) C. albicans ATCC 64548 GYF [1, 4]: 9 mm
Transparency of the inhibition ring C. albicans ATCC 64548 GYF [1, 4]: D (Growth of test organism was inhibited 35% or more and 55% or less.)
Inhibition activity (inhibition ring mm) C. albicans ATCC 64548 GYM ([1]; 50 μg/8 mm disk): 15 mm
Transparency of the inhibition ring C. albicans ATCC 64548 GYM ([1]; 50 μg/8 mm disk): A (Growth of test organism was inhibited 95% or more.)
Inhibition activity (inhibition ring mm) A. niger ATCC 6275 GYF ([2]; 10 μg/8 mm disk): 11 mm
Transparency of the inhibition ring A. niger ATCC 6275 GYF ([2]; 10 μg/8 mm disk): E (Growth of test organism was inhibited 35% or less.)
Inhibition activity (inhibition ring mm) A. niger ATCC 6275 GY [2, 5]: 11 mm
Transparency of the inhibition ring A. niger ATCC 6275 GY [2, 5]: E (Growth of test organism was inhibited 35% or less.)
Inhibition activity (inhibition ring mm) A. niger ATCC 6275 GYF ([2]; 50 μg/8 mm disk): 13 mm
Transparency of the inhibition ring A. niger ATCC 6275 GYF ([2]; 50 μg/8 mm disk): D (Growth of test organism was inhibited 35% or more and 55% or less.)
Inhibition activity (inhibition ring mm) A. niger ATCC 6275 GYM [2, 6]: 17 mm
Transparency of the inhibition ring A. niger ATCC 6275 GYM [2, 6]: E (Growth of test organism was inhibited 35% or less.)
Inhibition activity (inhibition ring mm) C. albicans ATCC 64550 GYF ([3]; GYF, fluconazole 30 μg/ml): 10 mm
Transparency of the inhibition ring C. albicans ATCC 64550 GYF ([3]; GYF, fluconazole 30 μg/ml): E (Growth of test organism was inhibited 35% or less.)
Inhibition activity (inhibition ring mm) C. albicans ATCC 64550 GYM ([3]; GYM, miconazole 0.15 μg/ml): 11 mm
Transparency of the inhibition ring C. albicans ATCC 64550 GYM ([3]; GYM, miconazole 0.15 μg/ml): D (Growth of test organism was inhibited 35% or more and 55% or less.)
